# Experimental data reported in USRE50301E1, “Depot systems comprising glatiramer or pharmacologically acceptable salt thereof” (MAPI PHARMA LTD., priority 2010, dated 2025).
# Test system: MOG-induced chronic EAE in C57BL/6 mice
# Type: in vivo
# Excerpt: The effect of the two formulations on MOG (myelin-oligodendrocyte-glycoprotein)-induced chronic EAE in C57BL/6 mice was examined according to the procedure described below.
# Forty (40) female C57BL/6 mice had been randomly grouped into three (3) groups by body weight in this study; each group consisted of ten (10) mice. […] EAE had been induced by injection of emulsion of MOG subcutaneously on the shaved back of the mouse at three sites, followed by an intraperitoneal injection of Bordetella pertussis toxin in PBS on Day 0 and 48 hours post MOG immunization. EAE had been assessed by clinical scoring of the mice once daily from Day 0 to Day 14 post immunization. […] On Day 14, mice had been terminated.
# After anesthetization by isoflurane (2-3%, inhalation), EAE had been induced by injecting 100 μL emulsion subcutaneously into the shaved backs of the mice. Bordetella pertussis toxin (200 ng in 200 μL of PBS) had been administered i.p. on the day of immunization (Day 0) and 48 hours thereafter. […]
# Body weight of all mice had been recorded daily starting from Day 0 to Day 14. EAE development had been assessed by clinically scoring of the mice once daily from Day 0 to Day 14 post immunization according to a scale of 0-5 (0=normal mouse; 1=limp tail or hind limb weakness; 2=limp tail and hind limb weakness; 3=partial hind limb paralysis; 4=complete hind limb paralysis; and 5=moribund state). […]
substance,measurement,setting,value
"L-glutamic acid polymer with L-alanine, L-lysine and L-tyrosine, acetate (salt) [GA]",Maximum score,"clinical score scale 0-5, days 0-14, 5 mg GA/mice/day i.m. on day 0 and day 1",0.5 ± 0.31
same,Disease duration,"days 0-14, 5 mg GA/mice/day i.m. on day 0 and day 1",0.5 ± 0.31
